From patent US20150202304A1, “ENCAPSULATION OF IMMISCIBLE PHASES IN SILK FIBROIN BIOMATERIALS” (TUFTS UNIVERSITY, priority 2012, published 2015)

Test: Release of adenosine from dissolvable silk films in PBS
Type: physicochemical
Details: within 15 minutes of exposure to 37° C. PBS; ~0.5, 0.25 or 0.125 mg adenosine per 0.2 mm^2 film
Method: Rapid dissolution of films loaded with a dye and release of the dye from the films occur when the films are immersed in ˜37° C. buffer (FIG. 10). Dissolvable silk films loaded with an active agent (e.g., ˜0.5, 0.25 or 0.125 mg of adenosine per 0.2 mm^2 film) released the majority of the drug load (approx. 80%) within 15 minutes of exposure to 37° C. phosphate buffered saline (PBS) (Data not shown).

## Nc1ncnc2c1ncn2[C@@H]1O[C@H](CO)[C@@H](O)[C@H]1O [adenosine]
  drug load released from dissolvable silk films: approx. 80%
